# Target: GCN2 kinase (Homo sapiens, UniProt Q9P2K8)
# Assay: GCN2 enzyme inhibition assay (Transcreener ADP2 fluorescence polarization)
# Format: biochemical
# Conditions: Enzyme activity for compounds of Formula IV; Ki(app), 280 μM ATP, 25° C.
# In short: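 Kinase activity is followed as ADP formation, measured by fluorescence polarization, using 4 nM enzyme with 280 μM ATP and 200 μM (RS)7 peptide at pH 7.5 and 25 °C for 1 h. Values come from a non-linear tight-binding fit.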
# Sequence of GCN2 kinase (Q9P2K8 whole entry): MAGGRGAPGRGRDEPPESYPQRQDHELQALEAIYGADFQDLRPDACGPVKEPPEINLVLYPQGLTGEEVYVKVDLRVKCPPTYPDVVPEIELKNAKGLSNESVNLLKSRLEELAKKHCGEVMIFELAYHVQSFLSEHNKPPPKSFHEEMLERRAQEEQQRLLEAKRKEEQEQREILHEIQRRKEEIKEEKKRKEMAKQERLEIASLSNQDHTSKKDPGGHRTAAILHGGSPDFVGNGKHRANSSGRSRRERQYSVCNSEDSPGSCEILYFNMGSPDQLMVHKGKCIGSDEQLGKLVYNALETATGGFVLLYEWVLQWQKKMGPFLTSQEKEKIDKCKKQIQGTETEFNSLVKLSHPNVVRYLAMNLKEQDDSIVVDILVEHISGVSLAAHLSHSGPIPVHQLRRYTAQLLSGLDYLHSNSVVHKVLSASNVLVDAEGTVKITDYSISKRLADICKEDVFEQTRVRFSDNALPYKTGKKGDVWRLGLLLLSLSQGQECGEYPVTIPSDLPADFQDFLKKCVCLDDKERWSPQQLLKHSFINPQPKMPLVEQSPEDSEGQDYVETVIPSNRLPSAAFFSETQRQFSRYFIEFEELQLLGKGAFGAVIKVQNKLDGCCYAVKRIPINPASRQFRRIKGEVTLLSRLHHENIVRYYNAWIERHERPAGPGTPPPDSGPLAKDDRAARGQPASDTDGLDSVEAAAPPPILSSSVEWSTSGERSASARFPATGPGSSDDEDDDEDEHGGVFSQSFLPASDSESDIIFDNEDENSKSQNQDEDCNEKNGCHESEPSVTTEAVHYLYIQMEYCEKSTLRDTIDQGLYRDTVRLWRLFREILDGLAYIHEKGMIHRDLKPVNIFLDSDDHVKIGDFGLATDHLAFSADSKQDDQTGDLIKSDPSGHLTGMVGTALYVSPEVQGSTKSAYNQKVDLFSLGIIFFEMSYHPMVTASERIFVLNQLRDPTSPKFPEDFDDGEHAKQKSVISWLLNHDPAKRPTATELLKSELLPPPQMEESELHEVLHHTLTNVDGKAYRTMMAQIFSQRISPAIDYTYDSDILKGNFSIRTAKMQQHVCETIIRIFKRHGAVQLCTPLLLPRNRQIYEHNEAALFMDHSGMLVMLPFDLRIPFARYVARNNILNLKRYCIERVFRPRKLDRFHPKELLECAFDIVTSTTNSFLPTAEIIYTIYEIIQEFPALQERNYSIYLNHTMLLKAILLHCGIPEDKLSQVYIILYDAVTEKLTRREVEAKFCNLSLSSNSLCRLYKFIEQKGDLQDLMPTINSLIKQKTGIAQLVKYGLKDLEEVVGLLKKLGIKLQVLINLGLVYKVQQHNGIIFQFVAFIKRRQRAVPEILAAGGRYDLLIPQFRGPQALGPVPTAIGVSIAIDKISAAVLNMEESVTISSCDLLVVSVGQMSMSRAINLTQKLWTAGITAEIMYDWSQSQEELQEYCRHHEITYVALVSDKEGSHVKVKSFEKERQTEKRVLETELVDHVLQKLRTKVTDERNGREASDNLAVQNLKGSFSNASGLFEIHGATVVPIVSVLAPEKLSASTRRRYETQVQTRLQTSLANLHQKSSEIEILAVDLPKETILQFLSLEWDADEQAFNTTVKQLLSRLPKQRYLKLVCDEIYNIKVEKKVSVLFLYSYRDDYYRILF
row,Compound,Ki
1,"CC(=O)NCC1CCN(c2ccnc(-c3cnc4cnc(C(F)(F)F)cn34)n2)C1 (stereo not drawn) [IV-537, N-((1-(2-(6-(Trifluoromethyl)imidazo[1,2-a]pyrazin-3-yl)pyrimidin-4-yl)pyrrolidin-3-yl)methyl)acetamide]",100 to 1000 nM
2,FC(F)(F)c1cn2c(-c3nccc(N4CCO[C@H](c5ccccn5)C4)n3)cnc2cn1 [IV-713],100 to 1000 nM
3,"FC(F)(F)c1cn2c(-c3nccc(N4CCCCCC4)n3)cnc2cn1 [IV-429, 3-(4-(Azepan-1-yl)pyrimidin-2-yl)-6-(trifluoromethyl)imidazo[1,2-a]pyrazine]",100 to 1000 nM
4,CS(C)(=O)=NCC(=O)N[C@H]1CCCN(c2ccnc(-c3cnc4cnc(C(F)(F)F)cn34)n2)C1 [IV-747],> 1000 nM
5,CC(C)(C)n1cc(C(=O)N[C@H]2CCCN(c3ccnc(-c4cnc5cnc(C(F)(F)F)cn45)n3)C2)nn1 [IV-750],> 1000 nM
6,"Clc1cn2c(-c3nccc(N4CCNC(c5cn[nH]c5)C4)n3)cnc2cn1 (single isomer, unassigned) [IV-237, 3-(4-(3-(1H-Pyrazol-4-yl)piperazin-1-yl)pyrimidin-2-yl)-6-chloroimidazo[1,2-a]pyrazine]",100 to 1000 nM
7,"FC(F)(F)c1cn2c(-c3nccc(N4CC(CN5CCC5)CC(c5cn[nH]c5)C4)n3)cnc2cn1 (stereo not drawn) [IV-681, 3-(4-(3-(Azetidin-1-ylmethyl)-5-(1H-pyrazol-4-yl)piperidin-1-yl)pyrimidin-2-yl)-6-(trifluoromethyl)imidazo[1,2-a]pyrazine]",10 to 100 nM
8,"OC1CCN(c2ccnc(-c3cnc4cnc(C(F)(F)F)cn34)n2)C1 (stereo not drawn) [IV-433, 1-(2-(6-(Trifluoromethyl)imidazo[1,2-a]pyrazin-3-yl)pyrimidin-4-yl)pyrrolidin-3-ol]",100 to 1000 nM
9,"NC(=O)c1cn2c(-c3nccc(N4CCCC(N)C4)n3)cnc2cn1 (stereo not drawn) [IV-256, 3-(4-(3-Aminopiperidin-1-yl)pyrimidin-2-yl)imidazo[1,2-a]pyrazine-6-carboxamide]",100 to 1000 nM
10,"CC1(C(N)=O)CCN(c2ccnc(-c3cnc4cnc(C(F)(F)F)cn34)n2)C1 (stereo not drawn) [IV-581, 3-Methyl-1-(2-(6-(trifluoromethyl)imidazo[1,2-a]pyrazin-3-yl)pyrimidin-4-yl)pyrrolidine-3-carboxamide]",100 to 1000 nM
11,"Cn1nc(C2CCCN(c3ccnc(-c4cnc5cnc(C(F)(F)F)cn45)n3)C2)cc1CCO (stereo not drawn) [IV-662, 2-(1-Methyl-3-(1-(2-(6-(trifluoromethyl)imidazo[1,2-a]pyrazin-3-yl)pyrimidin-4-yl)piperidin-3-yl)-1H-pyrazol-5-yl)ethan-1-ol]",100 to 1000 nM
12,"CC1CC(C)C(C)N(c2ccnc(-c3cnc4cnc(C(F)(F)F)cn34)n2)C1 (stereo not drawn) [IV-643, 6-(Trifluoromethyl)-3-(4-(2,3,5-trimethylpiperidin-1-yl)pyrimidin-2-yl)imidazo[1,2-a]pyrazine]",100 to 1000 nM
13,"CC1C(c2cn[nH]c2)OCCN1c1ccnc(-c2cnc3cnc(Br)cn23)n1 (single isomer, unassigned) [IV-329, 4-(2-(6-Bromoimidazo[1,2-a]pyrazin-3-yl)pyrimidin-4-yl)-3-methyl-2-(1H-pyrazol-4-yl)morpholine]",10 to 100 nM
14,"CC(=O)N1CCCN(c2ccnc(-c3cnc4cnc(C(N)=O)cn34)n2)CC1 [IV-190, 3-(4-(4-Acetyl-1,4-diazepan-1-yl)pyrimidin-2-yl)imidazo[1,2-a]pyrazine-6-carboxamide]",100 to 1000 nM
15,"O=C(NCCO)C1CCCN(c2ccnc(-c3cnc4cnc(C(F)(F)F)cn34)n2)C1 (stereo not drawn) [IV-479, N-(2-Hydroxyethyl)-1-(2-(6-(trifluoromethyl)imidazo[1,2-a]pyrazin-3-yl)pyrimidin-4-yl)piperidine-3-carboxamide]",100 to 1000 nM
16,"Cn1nc(C2CCN(c3ccnc(-c4cnc5cnc(C(F)(F)F)cn45)n3)C2)cc1O (stereo not drawn) [IV-647, 1-Methyl-3-(1-(2-(6-(trifluoromethyl)imidazo[1,2-a]pyrazin-3-yl)pyrimidin-4-yl)pyrrolidin-3-yl)-1H-pyrazol-5-ol]",100 to 1000 nM
17,"FC(F)(F)c1cn2c(-c3nccc(N4CCCC(c5nncs5)C4)n3)cnc2cn1 (stereo not drawn) [IV-671, 2-(1-(2-(6-(Trifluoromethyl)imidazo[1,2-a]pyrazin-3-yl)pyrimidin-4-yl)piperidin-3-yl)-1,3,4-thiadiazole]",100 to 1000 nM
18,"CN1CCN(c2ccnc(-c3cnc4cnc(C(N)=O)cn34)n2)CC1 [IV-239, 3-(4-(4-Methylpiperazin-1-yl)pyrimidin-2-yl)imidazo[1,2-a]pyrazine-6-carboxamide]",100 to 1000 nM
19,"CC(=O)N1CCN(c2nc(C)cc(-c3cnc4cnc(C(N)=O)cn34)n2)CC1 [IV-188, 3-(2-(4-Acetylpiperazin-1-yl)-6-methylpyrimidin-4-yl)imidazo[1,2-a]pyrazine-6-carboxamide]",100 to 1000 nM
20,"NC(=O)c1cn2c(-c3cccc(N4CCC(O)CC4)n3)cnc2cn1 [IV-219, 3-(6-(4-Hydroxypiperidin-1-yl)pyridin-2-yl)imidazo[1,2-a]pyrazine-6-carboxamide]",10 to 100 nM
21,O=C(O)C1c2sccc2CCN1c1ccnc(-c2cnc3cnc(C(F)(F)F)cn23)n1 (stereo not drawn) [IV-731],> 1000 nM
22,"N#CC1CCCN(c2ccnc(-c3cnc4cnc(C(F)(F)F)cn34)n2)C1 (stereo not drawn) [IV-516, 1-(2-(6-(Trifluoromethyl)imidazo[1,2-a]pyrazin-3-yl)pyrimidin-4-yl)piperidine-3-carbonitrile]",100 to 1000 nM
23,"CC1CN(c2ccnc(-c3cnc4cnc(Cl)cn34)n2)C(C)C(c2cn[nH]c2)N1 (single isomer, unassigned) [IV-246, 6-Chloro-3-(4-(2,5-dimethyl-3-(1H-pyrazol-4-yl)piperazin-1-yl)pyrimidin-2-yl)imidazo[1,2-a]pyrazine]",100 to 1000 nM
24,"FC(F)(F)c1cn2c(-c3nccc(N4CCC(c5ccncc5)C4)n3)cnc2cn1 (stereo not drawn) [IV-550, 3-(4-(3-(Pyridin-4-yl)pyrrolidin-1-yl)pyrimidin-2-yl)-6-(trifluoromethyl)imidazo[1,2-a]pyrazine]",100 to 1000 nM
25,"O=C1CC2(CCN(c3ccnc(-c4cnc5cnc(C(F)(F)F)cn45)n3)C2)CN1 (stereo not drawn) [IV-534, 7-(2-(6-(Trifluoromethyl)imidazo[1,2-a]pyrazin-3-yl)pyrimidin-4-yl)-2,7-diazaspiro[4.4]nonan-3-one]",100 to 1000 nM
26,"CC1CCN(c2ccnc(-c3cnc4cnc(C(F)(F)F)cn34)n2)CC1 [IV-517, 3-(4-(4-Methylpiperidin-1-yl)pyrimidin-2-yl)-6-(trifluoromethyl)imidazo[1,2-a]pyrazine]",100 to 1000 nM
27,"CC1C(c2cn[nH]c2)CC(P(C)(C)=O)CN1c1ccnc(-c2cnc3cnc(C(F)(F)F)cn23)n1 (stereo not drawn) [IV-697, Dimethyl(6-methyl-5-(1H-pyrazol-4-yl)-1-(2-(6-(trifluoromethyl)imidazo[1,2-a]pyrazin-3-yl)pyrimidin-4-yl)piperidin-3-yl)phosphine oxide]",100 to 1000 nM
28,"CC1CC(C(N)=O)C(C)N(c2ccnc(-c3cnc4cnc(C(F)(F)F)cn34)n2)C1 (stereo not drawn) [IV-464, 2,5-Dimethyl-1-(2-(6-(trifluoromethyl)imidazo[1,2-a]pyrazin-3-yl)pyrimidin-4-yl)piperidine-3-carboxamide]",< 10 nM
29,"CS(=O)(=O)C1CCCN(c2ccnc(-c3cnc4cnc(C(F)(F)F)cn34)n2)C1 (stereo not drawn) [IV-483, 3-(4-(3-(Methylsulfonyl)piperidin-1-yl)pyrimidin-2-yl)-6-(trifluoromethyl)imidazo[1,2-a]pyrazine]",100 to 1000 nM
30,NCCC1CN(c2ccnc(-c3cnc4cnc(C(F)(F)F)cn34)n2)CCO1 (stereo not drawn) [IV-486],100 to 1000 nM

# Same assay, conditions: compounds of Formula II; 280 μM ATP, 4 nM GCN2 kinase
row,Compound,Ki
1,"[2H]C([2H])([2H])N1CCN(c2cc(-c3cnc4ccc(C(F)F)nn34)ncn2)C(C)C1CNS(C)(=O)=O (stereo not drawn) [II-561, N-((4-(6-(6-(Difluoromethyl)imidazo[1,2-b]pyridazin-3-yl)pyrimidin-4-yl)-3-methyl-1-(methyl-d3)piperazin-2-yl)methyl)methanesulfonamide]",10 to 1000 nM
2,"CC1CC(CS(C)(=O)=O)C(C)N(c2cc(-c3cnc4ccc(C(F)F)nn34)ncn2)C1 (stereo not drawn) [II-587, 6-(Difluoromethyl)-3-[6-[2,5-dimethyl-3-(methylsulfonylmethyl)-1-piperidyl]pyrimidin-4-yl]imidazo[1,2-b]pyridazine]",< 10 nM
3,"CS(=O)(=O)C1CCCN(c2cc(-c3cnc4ccc(C(F)F)nn34)ncn2)C1 (single isomer, unassigned) [II-530, 6-(Difluoromethyl)-3-(6-(3-(methylsulfonyl)piperidin-1-yl)pyrimidin-4-yl)imidazo[1,2-b]pyridazine]",10 to 1000 nM
4,"CC(C)(O)C1CCCN(c2cc(-c3cnc4ccc(C(F)F)nn34)ncn2)C1 (stereo not drawn) [II-608, 2-(1-(6-(6-(Difluoromethyl)imidazo[1,2-b]pyridazin-3-yl)pyrimidin-4-yl)piperidin-3-yl)propan-2-ol]",10 to 1000 nM
5,"CC(C)C(C)(O)C1CCCN(c2cc(-c3cnc4ccc(C(F)F)nn34)ncn2)C1 (stereo not drawn) [II-622, 2-(1-(6-(6-(Difluoromethyl)imidazo[1,2-b]pyridazin-3-yl)pyrimidin-4-yl)piperidin-3-yl)-3-methylbutan-2-ol]",10 to 1000 nM
6,"CS(=O)(=O)NCC1CN(c2cc(-c3cnc4ccc(C(F)F)nn34)ncn2)C[C@@H]2CCCN12 (stereo partly drawn) [II-560, N-(((8aS)-2-(6-(6-(Difluoromethyl)imidazo[1,2-b]pyridazin-3-yl)pyrimidin-4-yl)octahydropyrrolo[1,2-a]pyrazin-4-yl)methyl)methanesulfonamide]",< 10 nM
7,CS(=O)(=O)NCC1CC(C#N)CN(c2cc(-c3cnc4ccc(C(F)F)nn34)ncn2)C1 (stereo not drawn),10 to 1000 nM
8,"CC1C(NS(C)(=O)=O)CCCN1c1cc(-c2cnc3ccc(C(F)F)nn23)ncn1 (stereo not drawn) [II-600, N-(1-(6-(6-(Difluoromethyl)imidazo[1,2-b]pyridazin-3-yl)pyrimidin-4-yl)-2-methylpiperidin-3-yl)methanesulfonamide]",> 1000 nM

# Same assay, conditions: compounds of Formula IV; 280 μM ATP, 4 nM GCN2 kinase
row,Compound,IC50
1,"Cc1n[nH]cc1[C@H]1CN(c2ccnc(-c3cnc4cnc(C(F)(F)F)cn34)n2)C[C@H](C)O1 [IV-761, (2S,6S)-2-methyl-6-(3-methyl-1H-pyrazol-4-yl)-4-(2-(6-(trifluoromethyl)imidazo[1,2-a]pyrazin-3-yl)pyrimidin-4-yl)morpholine]",10 to 1000 nM

# Source: patent US10988477B2 (Merck Patent GmbH, priority 2018, dated 2021)
